From US7767240B2, “Microbiological control in poultry processing” (priority 2001, dated 2010) come the findings set out here.

Molecules are shown by their SMILES.

Assay in all cases: Individual bacteria count per bird at pH 8 (Example 3)
Holding throughout (format): cell-based

Assay [1] concerns Escherichia coli ATCC 11229. The conditions noted are these: 25 birds per treatment, control 3055. As to the method:
(§1) This group of tests was conducted to determine the effect of Clorox® bleach, Aquatize® biocide, and 1,3-dibromo-5,5-dimethylhydantoin (DBDMH) on carcass bacteria (Escherichia coli field strain) residual after 1,5-hour in a chill tank “soup”. Tests were conducted with soups at pH 7, pH 8 and pH 9 (adjusted by trisodium phosphate) for whole bird bacteria counts. Tests at pH 8 were conducted for individual bacteria counts.
(§2) In general the tests involved normal processing of 56-day-old birds and immersing the carcasses first in a warm bath containing 10^4 per mL Escherichia coli, 10^4 per mL Salmonella enteritidis, 10^4 per mL Pseudomonas aeruginosa, 10^4 per mL Campylobacter jejuni, and 10^4 per mL spoilage bacteria each from […] strains (Listeria monocytogenes and Shigella sonnei). The carcasses were then immersed in a chill tank “soup”, containing normal organic fluids (blood, fat, skin, and meat particles) and containing the microbiocides on the test.
(§3) The bacteria stock solution used for this group of tests was prepared by growing each bacteria sample in the appropriate broth shown in Table 12. […] The containers were observed and not allowed to develop a heavy, cloudy visual appearance which would indicate that the growth had developed for too long a period. Thus the solutions had the appearance of only being foggy or somewhat unclear.
(§4) The procedure used for whole bird wash sampling was as follows: • 1. All samples were kept at ≦50 degrees Fahrenheit following collection. • 2. Microbiological analyses of samples began within 24 hours of sample collection. • 3. Information on the individual sample identification, date of collection, time of collection (phase during shift), treatment group and location of sample point were recorded on each sample bottle. • 4. At each defined sample time, carcasses were taken individually from the processing line wearing latex or rubber gloves. The gloves were rinsed with alcohol between each collection. • 5. Any excess fluid was drained off from the carcass. Each individual carcass was transferred to a sterile stomacher bag. • 6. To each carcass contained in the sterile stomacher bag, 400 mL of Butterfield's Phosphate Diluent (BPD) was added while making sure to pour the BPD into the inside of the carcass cavity. The carcass was rinsed inside and out with a rocking motion for one minute (ca. 35 RPM). This was best done by grasping the broiler carcass with one hand and the closed top of the bag with the other then rocking with a reciprocal motion in a 18-24 inch arc, assuring that all surfaces (interior and exterior of the carcass) were rinsed. • 7. The rinse solutions from each stomacher bag was transferred into the sample bottles, taking care to ensure that the information on the date of collection, time of collection (phase during shift), treatment group and location of sampler point matched that of the sample. • 8. Each bottle was sealed with parafilm and placed into a styrene container with crushed or dry ice or frozen freezer packs for overnight delivery to a testing laboratory. • 9. All filled styrene containers were held in a chilled (not below freezing) area until within 1 to 2 hours of courier collection for shipment.
(§5) In greater detail the trial events and experimental design used in this group of tests were as follows: • a) Test microorganisms used were: • Escherichia coli ATCC 11229 • Pseudomonas aeruginosa ATCC 15442 • Salmonella enteritidis ATCC 13076 • Shigella sonnei ATCC 9290 • Listeria monocytogenes ATCC 7644 • Campylobacter jejuni ATCC 29428 • b) Test Procedure: All test strains were grown individually at 35° C. for 24 hours in the media specified in Table 12. Cells were harvested by centrifugation at 10,000×g for 10 minutes and washed twice with Butterfield's Phosphate Buffer (BPB of pH 7.2). Cells were resuspended in BPB to obtain a cell suspension of approximately 1.0×10^8 CFU/mL for each microorganism. […]

The subject of assay [2] is Salmonella enteritidis ATCC 13076. Conditions: 25 birds per treatment, control 3969. As to the method:
as §1, §2, §3, §4, §5

The test system of assay [3] is Pseudomonas aeruginosa ATCC 15442. The conditions noted are these: 25 birds per treatment, control 2783. As to the method: as §1, §2, §3, §4, §5
In assay [4] the test system is Campylobacter jejuni ATCC 29428. The conditions noted are these: 25 birds per treatment, control 1282. As to the method:
as §1, §2, §3, §4, §5

In assay [5] the test system is Listeria monocytogenes ATCC 7644. Conditions: 25 birds per treatment, control 2463. Here is the method:
as §1, §2, §3, §4, §5

The test system of assay [6] is Shigella sonnei ATCC 9290. The conditions noted are these: 25 birds per treatment, control 4551. As to the method: as §1, §2, §3, §4, §5

As to `CC1(C)C(=O)N(Br)C(=O)N1Br` [DBDMH, 1,3-dibromo-5,5-dimethylhydantoin], the figures for the “average bacteria count per bird, E. coli” value in assay [1] (10 ppm) and in assay [1] (20 ppm) were 357 per bird and 4 per bird, respectively. For the same molecule, the “average bacteria count per bird, S. enteritidis” value in assay [2] (10 ppm) is 560 per bird; in assay [2] (20 ppm), 10 per bird. Moreover, the “average bacteria count per bird, P. aeruginosa” value in assay [3] (10 ppm) is 289 per bird; in assay [3] (20 ppm), 9 per bird. In addition, the entries for the “average bacteria count per bird, C. jejuni” value in assay [4] (10 ppm) and in assay [4] (20 ppm) were 183 per bird and 15 per bird, respectively. Further, the “average bacteria count per bird, L. monocytogenes” value amounted to 262 per bird in assay [5] (10 ppm) and 6 per bird in assay [5] (20 ppm). The figures for the “average bacteria count per bird, S. sonnei” value in assay [6] (10 ppm) and in assay [6] (20 ppm) were 456 per bird and 12 per bird, respectively.
